According to PubChem BioAssay AID2060897 (Molecular Pharmacology Branch, DTP, NCI, 2025):

System: 966289-007-R4-J1-PDC complex spheroid viability
Test: Anticancer human tumor 966289-007-R4-J1-PDC patient-derived pancreatic adenocarcinoma cell line growth inhibition [RAS]
Settings: for IC50: curve of first compound; for viability, T/C: stronger effect = lower value
Summary of the method: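 Agents were tested in combination matrices in half-log decrements from a top concentration at or near clinical Cmax (10 microM if undetermined). Targets were multi-cell spheroids of tumour lines plus HUVEC and MSC stromal cells.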

[1] = second compound 0.000949 µM, first compound 0.0316 µM
[2] = second compound 0.000949 µM, first compound 0.1 µM
[3] = second compound 0.000949 µM, first compound 0.316 µM
[4] = second compound 0.000949 µM, first compound 1 µM
[5] = second compound 0.000949 µM, first compound 3.16 µM
[6] = second compound 0.000949 µM, first compound 10 µM
[7] = second compound 0.003 µM, first compound 0.0316 µM
[8] = second compound 0.003 µM, first compound 0.1 µM
[9] = second compound 0.003 µM, first compound 0.316 µM
[10] = second compound 0.003 µM, first compound 1 µM
[11] = second compound 0.003 µM, first compound 3.16 µM
[12] = second compound 0.003 µM, first compound 10 µM
[13] = second compound 0.00949 µM, first compound 0.0316 µM
[14] = second compound 0.00949 µM, first compound 0.1 µM
[15] = second compound 0.00949 µM, first compound 0.316 µM
[16] = second compound 0.00949 µM, first compound 1 µM
[17] = second compound 0.00949 µM, first compound 3.16 µM
[18] = second compound 0.00949 µM, first compound 10 µM
[19] = second compound 0.03 µM, first compound 0.0316 µM
[20] = second compound 0.03 µM, first compound 0.1 µM
[21] = second compound 0.03 µM, first compound 0.316 µM
[22] = second compound 0.03 µM, first compound 1 µM
[23] = second compound 0.03 µM, first compound 3.16 µM
[24] = second compound 0.03 µM, first compound 10 µM
[25] = second compound 0.0949 µM, first compound 0.0316 µM
[26] = second compound 0.0949 µM, first compound 0.1 µM
[27] = second compound 0.0949 µM, first compound 0.316 µM
[28] = second compound 0.0949 µM, first compound 1 µM
[29] = second compound 0.0949 µM, first compound 3.16 µM
[30] = second compound 0.0949 µM, first compound 10 µM
[31] = second compound 0.3 µM, first compound 0.0316 µM
[32] = second compound 0.3 µM, first compound 0.1 µM
[33] = second compound 0.3 µM, first compound 0.316 µM
[34] = second compound 0.3 µM, first compound 1 µM
[35] = second compound 0.3 µM, first compound 3.16 µM
[36] = second compound 0.3 µM, first compound 10 µM
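Also: spheroids exposed to agents for one week before readout.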
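For viability, T/C in this document: percent viability relative to DMSO vehicle control wells as 100%.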

SMILES: CC(=O)OC12COC1CC(O)C1(C)C(=O)C(O)C3=C(C)C(OC(=O)C(O)C(NC(=O)OC(C)(C)C)c4ccccc4)CC(O)(C(OC(=O)c4ccccc4)C21)C3(C)C (stereo unspecified) + CCn1c(-c2cccnc2C(C)OC)c2c3cc(ccc31)N1CCOC(CC(NC(=O)C(C(C)C)N(C)C(=O)C3(F)CCN(C(=O)C#CC(C)(C)N(C)C)CC3)C(=O)N3CCCC(N3)C(=O)OCC(C)(C)C2)C1
- IC50 (second compound 0.000949 µM): < 31.6 nM
- IC50 (second compound 0.003 µM): < 31.6 nM
- IC50 (second compound 0.00949 µM): < 31.6 nM
- IC50 (second compound 0.03 µM): < 31.6 nM
- IC50 (second compound 0.0949 µM): < 31.6 nM
- IC50 (second compound 0.3 µM): < 31.6 nM
- viability, T/C [1]: 5.96%
- viability, T/C [2]: 11.7%
- viability, T/C [3]: 9.08%
- viability, T/C [4]: 14.2%
- viability, T/C [5]: 38%
- viability, T/C [6]: 61.4%
- viability, T/C [7]: 5.16%
- viability, T/C [8]: 12.8%
- viability, T/C [9]: 11%
- viability, T/C [10]: 16.3%
- viability, T/C [11]: 32.3%
- viability, T/C [12]: 52%
- viability, T/C [13]: 4.31%
- viability, T/C [14]: 11.3%
- viability, T/C [15]: 10.9%
- viability, T/C [16]: 16.3%
- viability, T/C [17]: 25.2%
- viability, T/C [18]: 59.7%
- viability, T/C [19]: 2.88%
- viability, T/C [20]: 3.54%
- viability, T/C [21]: 8.87%
- viability, T/C [22]: 10.5%
- viability, T/C [23]: 20.4%
- viability, T/C [24]: 49.5%
- viability, T/C [25]: 2.26%
- viability, T/C [26]: 4.26%
- viability, T/C [27]: 3.62%
- viability, T/C [28]: 4.99%
- viability, T/C [29]: 16.5%
- viability, T/C [30]: 26.8%
- viability, T/C [31]: 1.97%
- viability, T/C [32]: 3.21%
- viability, T/C [33]: 4.05%
- viability, T/C [34]: 4.51%
- viability, T/C [35]: 7.84%
- viability, T/C [36]: 9.46%

SMILES: NC1c2ccccc2OC12CCN(c1cnc3c(N4CCCc5ncccc54)n[nH]c3n1)CC2 (stereo unspecified) + CCn1c(-c2cccnc2C(C)OC)c2c3cc(ccc31)N1CCOC(CC(NC(=O)C(C(C)C)N(C)C(=O)C3(F)CCN(C(=O)C#CC(C)(C)N(C)C)CC3)C(=O)N3CCCC(N3)C(=O)OCC(C)(C)C2)C1
- IC50 (second compound 0.000949 µM): > 10000 nM
- IC50 (second compound 0.003 µM): > 10000 nM
- IC50 (second compound 0.00949 µM): > 10000 nM
- IC50 (second compound 0.03 µM): > 10000 nM
- IC50 (second compound 0.0949 µM): > 10000 nM
- IC50 (second compound 0.3 µM): > 10000 nM
- viability, T/C [1]: 113%
- viability, T/C [2]: 81.5%
- viability, T/C [3]: 109%
- viability, T/C [4]: 69.6%
- viability, T/C [5]: 82.1%
- viability, T/C [6]: 74.5%
- viability, T/C [7]: 113%
- viability, T/C [8]: 59%
- viability, T/C [9]: 102%
- viability, T/C [10]: 63.4%
- viability, T/C [11]: 91.9%
- viability, T/C [12]: 96.9%
- viability, T/C [13]: 92.4%
- viability, T/C [14]: 76.4%
- viability, T/C [15]: 77.6%
- viability, T/C [16]: 88.4%
- viability, T/C [17]: 104%
- viability, T/C [18]: 93.2%
- viability, T/C [19]: 62.7%
- viability, T/C [20]: 73.7%
- viability, T/C [21]: 96.9%
- viability, T/C [22]: 74.3%
- viability, T/C [23]: 104%
- viability, T/C [24]: 94.8%
- viability, T/C [25]: 80.9%
- viability, T/C [26]: 91.1%
- viability, T/C [27]: 128%
- viability, T/C [28]: 91.8%
- viability, T/C [29]: 117%
- viability, T/C [30]: 107%
- viability, T/C [31]: 94.4%
- viability, T/C [32]: 89.3%
- viability, T/C [33]: 96%
- viability, T/C [34]: 103%
- viability, T/C [35]: 147%
- viability, T/C [36]: 91.9%

SMILES: Nc1ccn(C2OC(CO)C(O)C2(F)F)c(=O)n1 (stereo unspecified) + CCn1c(-c2cccnc2C(C)OC)c2c3cc(ccc31)N1CCOC(CC(NC(=O)C(C(C)C)N(C)C(=O)C3(F)CCN(C(=O)C#CC(C)(C)N(C)C)CC3)C(=O)N3CCCC(N3)C(=O)OCC(C)(C)C2)C1
- IC50 (second compound 0.000949 µM): 7.01 nM
- IC50 (second compound 0.003 µM): 5.6 nM
- IC50 (second compound 0.00949 µM): 4.48 nM
- IC50 (second compound 0.03 µM): 4.23 nM
- IC50 (second compound 0.0949 µM): 4.66 nM
- IC50 (second compound 0.3 µM): 5.27 nM
- viability, T/C (second compound 0.000949 µM, first compound 0.00316 µM): 119%
- viability, T/C (second compound 0.000949 µM, first compound 0.01 µM): 18.9%
- viability, T/C [1]: 1.45%
- viability, T/C [2]: 0.78%
- viability, T/C [3]: 0.73%
- viability, T/C [4]: 0.9%
- viability, T/C (second compound 0.003 µM, first compound 0.00316 µM): 87.3%
- viability, T/C (second compound 0.003 µM, first compound 0.01 µM): 12.3%
- viability, T/C [7]: 1.03%
- viability, T/C [8]: 0.84%
- viability, T/C [9]: 1.07%
- viability, T/C [10]: 1.18%
- viability, T/C (second compound 0.00949 µM, first compound 0.00316 µM): 67.6%
- viability, T/C (second compound 0.00949 µM, first compound 0.01 µM): 9.69%
- viability, T/C [13]: 0.94%
- viability, T/C [14]: 0.85%
- viability, T/C [15]: 0.87%
- viability, T/C [16]: 1.1%
- viability, T/C (second compound 0.03 µM, first compound 0.00316 µM): 64%
- viability, T/C (second compound 0.03 µM, first compound 0.01 µM): 8.78%
- viability, T/C [19]: 0.83%
- viability, T/C [20]: 1.03%
- viability, T/C [21]: 1.23%
- viability, T/C [22]: 0.98%
- viability, T/C (second compound 0.0949 µM, first compound 0.00316 µM): 72.2%
- viability, T/C (second compound 0.0949 µM, first compound 0.01 µM): 6.25%
- viability, T/C [25]: 0.85%
- viability, T/C [26]: 0.82%
- viability, T/C [27]: 1.11%
- viability, T/C [28]: 1.25%
- viability, T/C (second compound 0.3 µM, first compound 0.00316 µM): 86.9%
- viability, T/C (second compound 0.3 µM, first compound 0.01 µM): 3.9%
- viability, T/C [31]: 0.92%
- viability, T/C [32]: 0.98%
- viability, T/C [33]: 0.91%
- viability, T/C [34]: 1.22%
